# In US11384063B2, “Modulators of estrogen receptor proteolysis and associated methods of use” (Arvinas Operations, Inc., priority 2017, dated 2022):
# Molecular target: T1, ERα (Homo sapiens, UniProt P03372)
# T1 sequence (P03372 1-595): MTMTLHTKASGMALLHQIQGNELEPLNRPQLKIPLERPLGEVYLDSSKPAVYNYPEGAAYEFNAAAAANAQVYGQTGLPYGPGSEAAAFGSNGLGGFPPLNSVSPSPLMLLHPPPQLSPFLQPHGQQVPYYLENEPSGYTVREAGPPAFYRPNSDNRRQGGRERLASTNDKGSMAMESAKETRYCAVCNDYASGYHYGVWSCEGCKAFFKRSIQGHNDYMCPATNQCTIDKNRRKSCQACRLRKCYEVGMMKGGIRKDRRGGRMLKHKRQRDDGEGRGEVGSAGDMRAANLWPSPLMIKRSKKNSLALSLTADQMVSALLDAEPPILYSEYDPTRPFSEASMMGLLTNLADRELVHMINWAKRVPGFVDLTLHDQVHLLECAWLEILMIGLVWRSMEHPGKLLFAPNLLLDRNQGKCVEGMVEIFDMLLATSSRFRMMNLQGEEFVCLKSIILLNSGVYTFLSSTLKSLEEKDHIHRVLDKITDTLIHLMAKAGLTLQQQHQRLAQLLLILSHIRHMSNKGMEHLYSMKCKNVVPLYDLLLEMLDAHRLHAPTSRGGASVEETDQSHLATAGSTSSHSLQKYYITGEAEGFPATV
# Assay: ERE luciferase reporter gene assay in T47D-KBluc cells (target engagement)
# Assay type: cell-based
# Set-up: T47D human breast cancer cells stably transfected with estrogen responsive element/promoter/luciferase reporter gene; host or cells: T47D-KBluc cells
# Settings: 10% FBS, 24 hours, Table 1 cereblon centric PROTACs, read-out: ER-α Luciferase IC50
# Experimental: Chimeric molecules were assessed for target engagement in T47D cells using the commercial kit of ERE luciferase reporter gene assay. In the assay, 10% FBS was included and estrogen level was measured to be 10 pM.
# ERE Luciferase Assay for Compounds in Table 1-3.
# T47D-KBluc cells (ATCC #CRL_2865, T47D human breast cancer cells stably transfected with estrogen responsive element/promoter/luciferase reporter gene) were seeded into 96-well white opaque plates in RPMI growth medium supplemented with 10% fetal bovine serum and allowed to adhere overnight in a 37° C. humidified incubator. The following day, cells were treated with PROTACs in a 12-point concentration curve (top final concentration of 300 nM with subsequent concentrations being 3-fold less with 2 pM being the lowest concentration in the assay). Each PROTAC was tested independently in two experiments on 96-well plates. After 24 hours, media was removed and lysis buffer was added to the wells. Following lysis, Bright-Glo™ Luciferase Assay Substrate (Prornega, Madison Wis.) was added and the luciferase activity was measured using a Cytation 3 plate reader (TioTek™, Winooski, Vt.). Each compound was assayed in duplicates and the activity was calculated as IC50 using GraphPad Prism software (San Diego, Calif.).
row,IC50,Compound
1,12.7 nM,O=C(CN1CCN(CCOc2ccc(Oc3c(-c4ccc(Br)cc4)sc4cc(O)ccc34)cc2)CC1)NCc1ccc2c(c1)CN(C1CCC(=O)NC1=O)C2=O (centres unmarked) [Compound 1]
2,0.36 nM,O=C1CCC(N2Cc3c(NCCN4CCN(CCOc5ccc(Oc6c(-c7ccccc7)sc7cc(O)ccc67)cc5)CC4)cccc3C2=O)C(=O)N1 (centres unmarked) [Compound 2]
3,0.14 nM,O=C1CCC(N2C(=O)c3cccc(NCCN4CCN(CCOc5ccc(Oc6c(-c7ccc(O)cc7)sc7cc(O)ccc67)cc5)CC4)c3C2=O)C(=O)N1 (centres unmarked) [Compound 3]
4,0.09 nM,O=C1CCC(N2Cc3c(NCCN4CCN(CCOc5ccc(Oc6c(-c7ccc(O)cc7)sc7cc(O)ccc67)cc5)CC4)cccc3C2=O)C(=O)N1 (centres unmarked) [Compound 4]
5,0.9 nM,O=C1CCC(N2Cc3c(NCCN4CCN(CCOc5ccc(Oc6c(-c7ccc(Br)cc7)sc7cc(O)ccc67)cc5)CC4)cccc3C2=O)C(=O)N1 (centres unmarked) [Compound 5]
6,1.3 nM,O=C1CCC(N2C(=O)c3cccc(NCCN4CCN(CCOc5ccc(Oc6c(-c7ccc(Br)cc7)sc7cc(O)ccc67)cc5)CC4)c3C2=O)C(=O)N1 (centres unmarked) [Compound 6]
7,1.1 nM,O=C1CCC(N2Cc3c(OCCN4CCN(CCOc5ccc(Oc6c(-c7ccc(Br)cc7)sc7cc(O)ccc67)cc5)CC4)cccc3C2=O)C(=O)N1 (centres unmarked) [Compound 7]
8,1.9 nM,O=C1CC[C@H](N2Cc3cc(OCC(=O)N4CCN(CCOc5ccc(Oc6c(-c7ccc(Br)cc7)sc7cc(O)ccc67)cc5)CC4)ccc3C2=O)C(=O)N1 [Compound 8]
9,2.9 nM,O=C1CC[C@@H](N2Cc3c(OCc4ccc(CN5CCN(CCOc6ccc(Oc7c(-c8ccc(Br)cc8)sc8cc(O)ccc78)cc6)CC5)nc4)cccc3C2=O)C(=O)N1 [Compound 9]
10,0.63 nM,O=C1CCC(N2C(=O)c3cccc(NCCN4CCN(CCOc5ccc(Oc6c(-c7ccccc7)sc7cc(O)ccc67)cc5)CC4)c3C2=O)C(=O)N1 (centres unmarked) [Compound 10]
11,2.6 nM,"C[C@H](COc1ccc(Oc2c(-c3ccc(Br)cc3)sc3cc(O)ccc23)cc1)N1CCN(CC(=O)NCc2ccc3c(c2)CN(C2CCC(=O)NC2=O)C3=O)CC1 (stereo partly drawn) [Compound 11, 2-{4-[(2R)-1-(4-{[2-(4-bromophenyl)-6-hydroxy-1-benzothiophen-3-yl]oxy}phenoxy)propan-2-yl]piperazin-1-yl}-N-{[2-(2,6-dioxopiperidin-3-yl)-1-oxo-2,3-dihydro-1H-isoindol-5-yl]methyl}acetamide]"
12,2.5 nM,C[C@@H](COc1ccc(Oc2c(-c3ccc(Br)cc3)sc3cc(O)ccc23)cc1)N1CCN(CC(=O)NCc2ccc3c(c2)CN(C2CCC(=O)NC2=O)C3=O)CC1 (some centres unmarked) [Compound 12]
13,1.3 nM,C[C@H](COc1ccc(Oc2c(-c3ccc(Br)cc3)sc3cc(O)ccc23)cc1)N1CCN(CCOc2cccc3c2CN(C2CCC(=O)NC2=O)C3=O)CC1 (some centres unmarked) [Compound 13]
14,17.7 nM,Cc1nc2c(NCCN3CCN(CCOc4ccc(Oc5c(-c6ccc(Br)cc6)sc6cc(O)ccc56)cc4)CC3)cccc2c(=O)n1C1CCC(=O)NC1=O (centres unmarked) [Compound 14]
15,1.7 nM,C[C@@H](COc1ccc(Oc2c(-c3ccc(Br)cc3)sc3cc(O)ccc23)cc1)N1CCN(CCOc2cccc3c2CN(C2CCC(=O)NC2=O)C3=O)CC1 (some centres unmarked) [Compound 15]
16,8.8 nM,Cc1nc2c(OCCN3CCN(CCOc4ccc(Oc5c(-c6ccc(Br)cc6)sc6cc(O)ccc56)cc4)CC3)cccc2c(=O)n1C1CCC(=O)NC1=O (centres unmarked) [Compound 16]
17,2.9 nM,O=C1CCC(N2Cc3c(OCCOCCOc4ccc(Oc5c(-c6ccc(Br)cc6)sc6cc(O)ccc56)cc4)cccc3C2=O)C(=O)N1 (centres unmarked) [Compound 17]
18,81.4 nM,O=C1CCC(N2Cc3c(NCCOCCOCCOCCOCCOc4ccc(Oc5c(-c6ccc(Br)cc6)sc6cc(O)ccc56)cc4)cccc3C2=O)C(=O)N1 (centres unmarked) [Compound 18]
19,8.9 nM,O=C1CCC(N2Cc3c(OCCOCCOCCOc4ccc(Oc5c(-c6ccc(Br)cc6)sc6cc(O)ccc56)cc4)cccc3C2=O)C(=O)N1 (centres unmarked) [Compound 19]
20,39.9 nM,O=C1CCC(N2C(=O)c3cccc(NCCOCCOCCOCCOCCOc4ccc(Oc5c(-c6ccc(Br)cc6)sc6cc(O)ccc56)cc4)c3C2=O)C(=O)N1 (centres unmarked) [Compound 20]
